Source: patent US20070027201A1 (Wyeth, priority 2005, published 2007)

The compounds below were run against T1, progesterone receptor (Homo sapiens, UniProt P06401) (assay: T47D alkaline phosphatase assay for progesterone receptor modulator (antagonist) activity). Conditions: T47D cells, antagonist mode in the presence of 1 nM progesterone, 24 hours.
T1 sequence (P06401 1-933): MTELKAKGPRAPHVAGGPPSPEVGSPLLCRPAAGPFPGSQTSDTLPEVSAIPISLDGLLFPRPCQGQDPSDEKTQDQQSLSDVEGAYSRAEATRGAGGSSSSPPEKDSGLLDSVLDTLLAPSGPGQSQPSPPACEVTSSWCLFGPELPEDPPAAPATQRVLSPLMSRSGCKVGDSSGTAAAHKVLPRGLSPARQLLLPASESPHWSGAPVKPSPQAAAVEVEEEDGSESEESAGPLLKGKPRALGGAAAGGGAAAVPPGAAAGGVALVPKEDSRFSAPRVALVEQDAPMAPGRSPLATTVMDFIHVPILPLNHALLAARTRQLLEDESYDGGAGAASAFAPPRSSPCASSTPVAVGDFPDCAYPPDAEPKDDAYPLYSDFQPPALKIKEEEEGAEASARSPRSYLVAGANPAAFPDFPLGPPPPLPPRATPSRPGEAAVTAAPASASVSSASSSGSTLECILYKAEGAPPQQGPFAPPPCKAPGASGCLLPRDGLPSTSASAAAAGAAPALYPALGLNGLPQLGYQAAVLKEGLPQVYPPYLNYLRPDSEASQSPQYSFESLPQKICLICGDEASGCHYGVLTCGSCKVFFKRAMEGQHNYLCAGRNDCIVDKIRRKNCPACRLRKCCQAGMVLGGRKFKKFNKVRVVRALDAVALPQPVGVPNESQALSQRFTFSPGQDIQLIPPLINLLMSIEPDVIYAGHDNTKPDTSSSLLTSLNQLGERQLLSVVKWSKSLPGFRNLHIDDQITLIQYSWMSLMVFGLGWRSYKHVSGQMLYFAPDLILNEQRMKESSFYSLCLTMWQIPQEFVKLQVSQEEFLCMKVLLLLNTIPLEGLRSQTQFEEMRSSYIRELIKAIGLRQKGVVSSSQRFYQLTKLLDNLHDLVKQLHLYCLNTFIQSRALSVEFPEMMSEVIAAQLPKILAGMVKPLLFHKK
Format: cell-based
Set-up: endogenous in cells; host or cells: T47D cells
Experimental: An assay was performed to identify compounds having progesterone receptor modulator activity. This assay identifies progestins or antiprogestins by determining a compound's effect on alkaline phosphatase activity in T47D cells.
Culture medium: DMEM:F12 (1:1) (GIBCO, BRL) supplemented with 5% (v/v) charcoal stripped fetal bovine serum (not heat-inactivated), 100 U/mL penicillin, 100 μg/mL streptomycin, and 2 mM the GlutaMax® reagent (GIBCO, BRL).
Alkaline phosphatase assay buffer: • I. 0.1M Tris-HCl, pH 9.8, containing 0.2% the Triton™ X-100 reagent • II. 0.1M Tris-HCl, pH 9.8, containing 4 mM p-nitrophenyl phosphate (Sigma).
Frozen T47D cells are thawed in a 37° C. water bath and diluted to 280,000 cells/mL in culture medium. To each well in a 96-well plate (Falcon, Becton Dickinson Labware), 180 μL of diluted cell suspension is added.
Twenty μL of reference or test compounds diluted in the culture medium is then added to each well. When testing for progestin antagonist activity, reference antiprogestins or test compounds are added in the presence of 1 nM progesterone. The cells are incubated at 37° C. in a 5% CO2/humidified atmosphere for 24 hours.
For high throughput screening, one concentration of each compound will be tested at 0.3 μg/mL. Based on an average molecular weight of 300 g/mol for the compounds in the library, the concentration is approximately 1 μM. Subsequently, active compounds will be tested in dose response assays to determine EC50 and IC50.
At the end of treatment, the medium is removed from the plate. Fifty μL of assay buffer I is added to each well. The plates are shaken in a titer plate shaker for 15 minutes. Then 150 μL of assay buffer II is added to each well. Optical density measurements are taken at 5 minute intervals for 30 minutes at a test wavelength of 405 nm.
Analysis of dose-response data. For reference and test compounds, a dose response curve is generated for dose (x-axis) vs. the rate of enzyme reaction (slope) (y-axis). Square root-transformed data are used for analysis of variance and nonlinear dose response curve fitting for both agonist and antagonist modes. Huber weighting is used to down-weight the effects of outliers. EC50 or IC50 values are calculated from the retransformed values. The JMP® software (SAS Institute, Inc.) is used for both one-way analysis of variance and non-linear dose response analysis in both single dose and dose response studies.
Progesterone and trimegestone are reference progestins and RU486 is the reference antiprogestin. All reference compounds are run in full dose response curves and the EC50 and IC50 values are calculated.
In the table provided above, the IC50 values show the relative progesterone receptor antagonist activity in this assay. Lower numbers are indicative of higher potency, i.e., greater PR antagonist activity. Further, the assay has a standard deviation of about ±6.
With Cn1c(C#N)ccc1-c1ccc(N)cc1 [Example 1, 5-(4-aminophenyl)-1-methyl-1H-pyrrole-2-carbonitrile] the IC50 was 109 nM.
With Cn1c(C#N)ccc1-c1ccc(N)c(F)c1 [Example 2, 5-(4-amino-3-fluorophenyl)-1-methyl-1H-pyrrole-2-carbonitrile] the IC50 was 65.4 nM.
Cn1c(C#N)ccc1-c1ccc(NC(=O)c2ccco2)cc1 [Example 3, N-[4-(5-cyano-1-methyl-1H-pyrrol-2-yl)phenyl]-2-furamide] gave an IC50 of 126 nM.
Work on CC(C)CC(=O)Nc1ccc(-c2ccc(C#N)n2C)cc1 [Example 4, N-[4-(5-cyano-1-methyl-1H-pyrrol-2-yl)phenyl]-3-methylbutanamide] yielded an IC50 of 304 nM.
With CC(C)C(=O)Nc1ccc(-c2ccc(C#N)n2C)cc1 [Example 5, N-[4-(5-cyano-1-methyl-1H-pyrrol-2-yl)phenyl]-2-methylpropanamide] the IC50 was 168 nM.
With CCC(=O)Nc1ccc(-c2ccc(C#N)n2C)cc1 [Example 6, N-[4-(5-cyano-1-methyl-1H-pyrrol-2-yl)phenyl]propanamide] the IC50 was 76.7 nM.
With CCCC(=O)Nc1ccc(-c2ccc(C#N)n2C)cc1 [Example 7, N-[4-(5-cyano-1-methyl-1H-pyrrol-2-yl)phenyl]butanamide] the IC50 was 78.8 nM.
Compound CC(=O)Nc1ccc(-c2ccc(C#N)n2C)cc1 [Example 8, N-[4-(5-cyano-1-methyl-1H-pyrrol-2-yl)phenyl]acetamide] has an IC50 of about 300 nM.
Work on Cn1c(C#N)ccc1-c1ccc(NC(=O)c2ccccc2)cc1 [Example 9, N-[4-(5-cyano-1-methyl-1H-pyrrol-2-yl)phenyl]benzamide] yielded an IC50 of 90.5 nM.
Cn1c(C#N)ccc1-c1ccc(NC(=O)C2CCC2)cc1 [Example 10, N-[4-(5-cyano-1-methyl-1H-pyrrol-2-yl)phenyl]cyclobutane-carboxamide] was tested, and the IC50 was 83.9 nM.
Work on Cn1c(C#N)ccc1-c1ccc(NC(=O)C2CCCCC2)cc1 [Example 11, N-[4-(5-cyano-1-methyl-1H-pyrrol-2-yl)phenyl]cyclohexane-carboxamide] yielded an IC50 of 325 nM.
For C=C(C)C(=O)Nc1ccc(-c2ccc(C#N)n2C)cc1 [Example 12, N-[4-(5-cyano-1-methyl-1H-pyrrol-2-yl)phenyl]-2-methylacrylamide], the IC50 was 97.2 nM.
For CCOC(=O)Nc1ccc(-c2ccc(C#N)n2C)cc1 [Example 13, Ethyl[4-(5-cyano-1-methyl-1H-pyrrol-2-yl)phenyl]carbamate], the IC50 was 266 nM.
For CC(C)COC(=O)Nc1ccc(-c2ccc(C#N)n2C)cc1 [Example 14, Isobutyl[4-(5-cyano-1-methyl-1H-pyrrol-2-yl)phenyl]carbamate], the IC50 was 378 nM.
Cn1c(C#N)ccc1-c1ccc(NC(=O)Nc2ccc(-c3ccc(C#N)n3C)cc2)cc1 [Example 15, N,N′-bis[4-(5-cyano-1-methyl-1H-pyrrol-2-yl)phenyl]urea] showed an IC50 of 642 nM.
Work on CCCS(=O)(=O)Nc1ccc(-c2ccc(C#N)n2C)cc1 [Example 16, N-[4-(5-cyano-1-methyl-1H-pyrrol-2-yl)phenyl]propane-1-sulfonamide] yielded an IC50 of 9.8 nM.
Cn1c(C#N)ccc1-c1ccc(N(S(C)(=O)=O)S(C)(=O)=O)cc1 [Example 17, N-[4-(5-cyano-1-methyl-1H-pyrrol-2-yl)phenyl]-N-(methylsulfonyl)methane sulfonamide] was tested, and the IC50 was about 300 nM.
CCCCS(=O)(=O)Nc1ccc(-c2ccc(C#N)n2C)cc1 [Example 18, N-[4-(5-cyano-1-methyl-1H-pyrrol-2-yl)phenyl]butane-1-sulfonamide] showed an IC50 of about 300 nM.
For Cn1c(C#N)ccc1-c1ccc(NS(=O)(=O)CC(F)(F)F)cc1 [Example 19, N-[4-(5-cyano-1-methyl-1H-pyrrol-2-yl)phenyl]-2,2,2-trifluoroethanesulfonamide], the IC50 was 58.4 nM.
CC(C)c1ccc(S(=O)(=O)Nc2ccc(-c3ccc(C#N)n3C)cc2)cc1 [Example 20, N-[4-(5-cyano-1-methyl-1H-pyrrol-2-yl)phenyl]-4-isopropylbenzenesulfonamide] gave an IC50 of about 3000 nM.
Compound Cn1c(C#N)ccc1-c1ccc(NS(=O)(=O)c2ccccc2)cc1 [Example 21, N-[4-(5-cyano-1-methyl-1H-pyrrol-2-yl)phenyl]benzenesulfonamide] has an IC50 of about 30 nM.
For Cc1ccc(S(=O)(=O)Nc2ccc(-c3ccc(C#N)n3C)cc2)cc1 [Example 22, N-[4-(5-cyano-1-methyl-1H-pyrrol-2-yl)phenyl]-4-methylbenzenesulfonamide], the IC50 was about 3000 nM.
Compound CC(C)S(=O)(=O)Nc1ccc(-c2ccc(C#N)n2C)cc1 [Example 23, N-[4-(5-cyano-1-methyl-1H-pyrrol-2-yl)phenyl]propane-2-sulfonamide] has an IC50 of 1.5 nM.
In the case of CCS(=O)(=O)Nc1ccc(-c2ccc(C#N)n2C)cc1 [Example 24, N-[4-(5-cyano-1-methyl-1H-pyrrol-2-yl)phenyl]ethanesulfonamide], the IC50 is reported as 10 nM.
Cn1c(C#N)ccc1-c1ccc(NS(C)(=O)=O)cc1 [Example 25, N-[4-(5-cyano-1-methyl-1H-pyrrol-2-yl)phenyl]methanesulfonamide] gave an IC50 of 8.2 nM.
Cn1c(C#N)ccc1-c1ccc(NS(C)(=O)=O)c(F)c1 [Example 26, N-[4-(5-cyano-1-methyl-1H-pyrrol-2-yl)-2-fluorophenyl]methane-sulfonamide] gave an IC50 of 28.9 nM.
Compound CCS(=O)(=O)Nc1ccc(-c2ccc(C#N)n2C)cc1F [Example 27, N-[4-(5-cyano-1-methyl-1H-pyrrol-2-yl)-2-fluorophenyl]ethane-sulfonamide] has an IC50 of 29.9 nM.
Compound Cn1c(C#N)ccc1-c1ccc(NC#N)cc1 [Example 28, [4-(5-cyano-1-methyl-1H-pyrrol-2-yl)-phenyl]cyanamide] has an IC50 of 54.1 nM.
Compound CCc1cc(-c2ccc(C#N)n2C)ccc1NC#N [Example 30, [4-(5-cyano-1-methyl-1H-pyrrol-2-yl)-2-ethylphenyl]cyanamide] has an IC50 of about 300 nM.
In the case of CCCc1cc(-c2ccc(C#N)n2C)ccc1NC#N [Example 31, [4-(5-cyano-1-methyl-1H-pyrrol-2-yl)-2-propylphenyl] cyanamide], the IC50 is reported as under 300 nM.
In the case of CC(C)c1cc(-c2ccc(C#N)n2C)ccc1NC#N [Example 32, [4-(5-cyano-1-methyl-1H-pyrrol-2-yl)-2-isopropylphenyl]cyanamide], the IC50 is reported as under 300 nM.
Cn1c(C#N)ccc1-c1ccc(NC#N)c(Cl)c1 [Example 33, [2-chloro-4-(5-cyano-1-methyl-1H-pyrrol-2-yl)phenyl]cyanamide] showed an IC50 of 897 nM.
Compound Cn1c(C#N)ccc1-c1ccc(NC#N)c(F)c1 [Example 34, [4-(5-cyano-1-methyl-1H-pyrrol-2-yl)-2-fluorophenyl]cyanamide] has an IC50 of 670 nM.
COc1cc(-c2ccc(C#N)n2C)ccc1NC#N [Example 35] gave an IC50 of under 300 nM.
With COc1cc(NC#N)ccc1-c1ccc(C#N)n1C [Example 36, [4-(5-cyano-1-methyl-1H-pyrrol-2-yl)-3-methoxyphenyl]cyanamide] the IC50 was 83.9 nM.
